Assays:
E. coli K12 [1] = format: cell-based; details: 20 μM compound, human IgM M86 antibody 25 μg/mL, FC500, Method 1
Experimental: Antibody Recruitment Assay by Flow Cytometry Using Anti-Alpha-Galactosyl IgM Antibody
A secondary FITC labelled anti-human IgM antibody was used to detect binding of anti-alpha-galactosyl to the compound.
(§1) The assays were carried out in polystyrene 96-well U bottom plates (Costar). The 96-well plates were pre-blocked with casein blocking buffer (Thermo Fisher 37528) and then washed three times with (HBSS+/+) (Life Technologies 14025-050) prior to assay. E. coli K12 (Public Health England, NCTC 10538) were grown in LB broth (Fisher BP1426-500) to late exponential phase. Subsequently, the bacteria were centrifuged at 10 000 rpm for 5 minutes and resuspended in HBSS+/+ at a bacterial density of 2*10^9 CFU/mL. […] After a final wash of 3×200 μL HBSS+/+ the bacteria were resuspended in 200 μL HBSS+/+ and evaluated on a FC500 (Beckman Coulter). Bacteria were live gated in the FL-4 channel and median fluorescent shift was recorded in the FL-1 channel. Data from all samples were analysed in the Kaluza software package (Beckman Coulter). […]
(§2) The fold shift over background was calculated by dividing the Median Fluorescent Intensity obtained in the presence 20 μM Examples by the Median Fluorescence Intensity obtained in the absence of Examples. The shift in fluorescence intensity (FITC) occurs due to the binding event at each end of the molecule.

E. coli K12 [2] = format: cell-based; details: 20 μM compound, anti-alpha galactosyl IgG purified from human IVIG, 42 μg/mL
Experimental: Antibody Recruitment Assay by Flow Cytometry Using Anti Alpha-Galactosyl IgG Antibody
A secondary FITC labelled anti-human IgG antibody was used to detect binding of alpha-galactosyl to the compound.
as §1, with “and resuspended HBSS+/+ at” for “and resuspended in HBSS+/+ at”
as §2

CCCCCCCCC(=O)N[C@@H](CCNC(=O)c1cc(OCC(=O)NCCCO[C@@H]2OC(CO)[C@@H](O[C@@H]3OC(CO)[C@H](O)C(O[C@H]4OC(CO)[C@H](O)C(O)C4O)C3O)C(O)C2NC(C)=O)cc(-c2cc(OCC(=O)NCCCO[C@@H]3OC(CO)[C@@H](O[C@@H]4OC(CO)[C@H](O)C(O[C@H]5OC(CO)[C@H](O)C(O)C5O)C4O)C(O)C3NC(C)=O)cc(OCC(=O)NCCCO[C@@H]3OC(CO)[C@@H](O[C@@H]4OC(CO)[C@H](O)C(O[C@H]5OC(CO)[C@H](O)C(O)C5O)C4O)C(O)C3NC(C)=O)c2)c1)C(=O)N[C@H](C(=O)N[C@@H](CCN)C(=O)N[C@H]1CCNC(=O)[C@H]([C@@H](C)O)NC(=O)[C@H](CCN)NC(=O)[C@H](CCN)NC(=O)[C@H](CC(C)C)NC(=O)[C@@H](Cc2ccccc2)NC(=O)[C@H](CCN)NC1=O)[C@@H](C)O (some centres unmarked) [Example 10]
Anti-alpha galactosyl IgM recruitment at 20 μM (Median Fold shift over vehicle) (E. coli K12 [1]): 2 fold
Anti-alphagalactosyl IgG recruitment at 20 μM (Median Fold shift over vehicle) (E. coli K12 [2]): 1 fold
